Test [1] has as its target T1, MARK4 (Homo sapiens, UniProt Q96L34).
T1 construct: made in house
T1 sequence (Q96L34 1-752): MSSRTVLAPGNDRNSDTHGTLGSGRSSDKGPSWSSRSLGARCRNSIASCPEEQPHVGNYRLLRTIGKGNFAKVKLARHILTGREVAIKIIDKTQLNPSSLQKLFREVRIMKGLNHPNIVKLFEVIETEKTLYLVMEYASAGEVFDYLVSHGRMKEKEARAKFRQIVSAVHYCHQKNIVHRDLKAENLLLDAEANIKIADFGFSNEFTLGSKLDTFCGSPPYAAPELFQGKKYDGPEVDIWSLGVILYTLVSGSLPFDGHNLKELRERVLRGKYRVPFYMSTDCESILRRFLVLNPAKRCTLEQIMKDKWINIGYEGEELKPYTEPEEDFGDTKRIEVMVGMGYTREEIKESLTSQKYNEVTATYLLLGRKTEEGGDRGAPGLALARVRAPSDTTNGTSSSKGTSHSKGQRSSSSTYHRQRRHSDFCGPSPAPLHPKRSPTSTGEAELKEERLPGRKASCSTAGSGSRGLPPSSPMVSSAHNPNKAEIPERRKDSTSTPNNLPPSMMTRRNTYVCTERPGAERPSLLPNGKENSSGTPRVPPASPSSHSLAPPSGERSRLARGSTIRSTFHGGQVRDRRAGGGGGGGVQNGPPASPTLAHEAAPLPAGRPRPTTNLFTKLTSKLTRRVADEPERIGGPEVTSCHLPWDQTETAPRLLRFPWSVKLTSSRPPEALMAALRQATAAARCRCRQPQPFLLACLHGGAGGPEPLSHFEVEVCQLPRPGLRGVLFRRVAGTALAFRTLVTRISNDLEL
The test is described as follows: Steady-state fluorescence quenching binding studies. Particulars: for Kq (bimolecular quenching rate constant): Kq=Ksv/τ0; for ∆G: van't Hoff equation. The procedure:
Fluorescence quenching experiments were carried out on Jasco FP-6200 spectrofluorometer attached with an external water bath which serves as a temperature controller. The experiment was carried out at three different temperatures in triplicates. The protein concentration was kept constant at 4 µM while the ligand was titrated in the ratio of 1:9 at all three temperatures (288 K, 298 K, and 305 K). The fluorescence intensities were corrected for the inner filter effect according to Chi & Liu, 2011[57] the following equation:1 Fcorrected=Fobservede^(Aex+Aobs)/2
Aex and Aobs are the absorption of the system at excitation and emission wavelengths, respectively. The fluorescence intensities were corrected after taking filter effect into account and all the reported spectra are the subtracted spectra taking fluorescence of ligand alone. Fluorescence quenching data was further analyzed employing Stern-Volmer, modified Stern-Volmer and van’t Hoff equation.
To analyze the quenching data, Stern Volmer equation (Eq. 2) was deployed to find the Stern-Volmer constant:2 F0/F=1+Ksv[C] where F0 & F are fluorescence intensity of MARK4 in the absence and presence of RA, [C] is the concentration of RA. Ksv refers to Stern–Volmer constant.
The Ksv value decreases with increasing temperature for static quenching while the opposite effect is observed for dynamic quenching. […] Thus, we can say that the MARK4-RA complex formation is driven by the dynamic mode of quenching. The mode of quenching was further confirmed from the value of bimolecular quenching rate constant, Kq, which was calculated as per Eq. 33 Kq=Ksv/τ0 τo refers to the average integral fluorescence lifetime of tryptophan and is reported to be 2.7 × 10^-9 s.
Further, decrease in fluorescence in the presence of RA was analyzed by modified Stern-Volmer equation (Eq. 4)[63],[64].4 logF0−F/F=logK+nlog[C]
Using van’t Hoff equation (Eq. 5)[65], thermodynamic parameters for ligand-protein interaction such as Gibbs free energy change (∆G), enthalpy change (∆H) and entropy change (∆S) can be calculated.5 ΔG=−RTLnK=ΔH−TΔS K is the binding constant, ∆H is enthalpy change, ∆G is Gibbs free energy change, ∆S is entropy change, and R is the universal gas constant (1.987 cal mol^−1 K^−1). The experimental fitting of data as per Eq. 5 is shown in Fig. 6C […]. The slope of this plot gives the value of -∆H/R, and the intercept giving the value of ∆S/R.“T”.

Test [2] has as its target T1, MARK4. The test is described as follows: Isothermal titration calorimetry. It is filed as binding. As to the method:
ITC measurements were done at 25 °C on a VP-ITC microcalorimeter from MicroCal, Inc (GE, MicroCal, USA). The first injection was a false one of 2 s with other injections set at 10 s. The sample cell was filled with MARK4 with reference cell with a reference buffer and a syringe containing 500 µM RA was titrated into MARK4. MicroCal Origin 8.0 was used to analyze the obtained data.

In test [3] the target is T1, MARK4. In words: ATPase enzyme inhibition assay (malachite green). The class given is biochemical. Particulars: RA 0–18 µM, ATP 200 µM, MARK4 4 µM, 25 °C, 1 hour. As to the method: To see the inhibitory effect of RA on MARK4, an ATPase assay was carried out in the presence of increasing concentrations of RA. Freshly prepared ATP (200 µM) was added to MARK4 (4 µM) and final reaction mixture of 100 μl was incubated at 25 °C for 1 hour. Malachite green (200 μl) was further added to the reaction mixture to stop the reaction followed by incubation of samples at room temperature for 20–25 minutes for the development of color. From the final reaction mixture, 100 μl was transferred to a 96-well plate in triplicates to measure spectrophotometrically at 620 nm.

The next test has as its system phosphorylation of tau. The test is described as follows: Tau-phosphorylation assay (flow cytometry). Particulars: SH-SY5Y cells, IC50 and 2 × IC50 doses, 48 h, vs untreated cells. It is filed as cell-based, human. The procedure:
To see the effect of RA treatment on the activity of MARK4, Tau-phosphorylation studies were performed as per the previously published protocol. Briefly, SH-SY5Y cells were incubated with IC50 and 2 × IC50 doses of RA. Approximately, 10^6 cells were collected after 48 h treatment, washed with PBS, fixed and incubated with anti-tau antibodies at 25 °C for 2–4 hrs. Following the incubation, cells were washed and analyzed by flow cytometry.
Background: A flow cytometer gives signals particle by particle.

The test system of test [4] is MDA-MB-231 cells. In words: MTT cell viability, MDA-MB-231. It is filed as cell-based, human. Particulars: MDA-MB-231, 0–200 μM, 72 h.
Another test relates to A549 cells. The test is described as follows: MTT cell viability, A549. It is filed as cell-based, human. Particulars: A549, 0–200 μM, 72 h.
Test [5] has as its system MARK4. In words: MARK4 protein expression by western blot. The class given is cell-based, human. Particulars: MDA-MB-231 cells, IC50 concentration, 48 h, immunoblotting. The procedure: MDA-MB-231 vehicle control or RA treated cells were lysed in RIPA cell lysis buffer (Thermo Fisher Scientific, USA). Total protein was isolated and quantified by Bicinchoninic acid assay kit. Approximately 30–40 μg of whole-cell protein was diluted with 6X Laemmli’s buffer, boiled for 3–5 min and resolved using 12% SDS-polyacrylamide electrophoresis under reducing conditions. The resolved polypeptides were transferred to polyvinylidene fluoride (PVDF) membrane using blotting and identified using protein-specific primary antibodies and horseradish peroxidase conjugated secondary antibodies. Luminol was used as a chemiluminescent substrate for HRP[56].
A general note: Immunoblotting shows a protein as a band on a membrane.

The test system of test [6] is MDA-MB-231 cells. In words: Cell apoptosis assay (Annexin-V/PI staining). The class given is cell-based, human. Particulars: 72 h. As to the method: Apoptosis inducing properties of RA was studied using Annexin-V/PI staining as described previously[58],[60]. In brief, cells were treated with IC50 and 2 × IC50 doses of RA for 72 h at 37 °C, while control cells were treated with cell culture media only or vehicle control. After 72 h incubation, ~1.0–1.5 × 10^6 cells were collected, washed three times with PBS and stained using FITC labeled Annexin-V and PI (BD-Biosciences, USA). Stained cells were analyzed using BD LSR II Flow Cytometry Analyzer and FlowJo.

The mark [7] stands for this setting: Binding constant (K), fluorescence quenching studies, temperature not given.
Setting [8] is: van't Hoff plot, 288, 298 and 305 K.

Data on 5 compounds can be found in publication PMC7316822 (Scientific Reports, 2020).

Procedure for A549 cells: The cytotoxicity studies of selected synthesized compounds were accessed using standard MTT assay[16],[58],[59]. Briefly, 5000–6000 cells/well were plated in 96-well cell culture plate and next day cells were treated with selected compounds (0–200 μM) for 72 h. After 72 h incubation, the culture medium was removed and after washing with phosphate buffer saline (pH 7.4) cells were incubated with MTT solution (a mixture of 100 µl in complete medium and 25 µl of MTT solution taken from 5 mg/ml stock), at 37 °C in the CO2 incubator. Afterward, the resultant formazan crystals were dissolved in 150–200 µl of DMSO and the absorbance of the reaction product was measured at 570 nm using a multiplate ELISA reader (BioRad). The percentage of cell viability was calculated and plotted as a function of RA concentration.

Take `O=c1c(O)c(-c2ccc(O)c(O)c2)oc2cc(O)cc(O)c12` [Quercetin]: binding on MARK4 [1] (setting [7]) was characterised by a dissociation constant (Kd) of 9760 µM.

With `O=C(/C=C/c1ccc(O)c(O)c1)O[C@H](Cc1ccc(O)c(O)c1)C(=O)O` [Rosmarinic acid], the “Ksv (Stern-Volmer constant)” value on MARK4 [1] (288 K) is recorded as 11.5 10^5 M^−1; at MARK4 [1] (298 K), 24.9 10^5 M^−1; at MARK4 [1] (305 K), 29.4 10^5 M^−1. Moreover, the entries for the “TΔS°” value at MARK4 [1] (288 K), on MARK4 [1] (298 K) and at MARK4 [1] (305 K) were -12.0468 kcal/mol, -12.4651 kcal/mol and -12.7579 kcal/mol, respectively. Further, the “n (number of binding sites)” value is on record as 1.34 at MARK4 [1] (288 K), 1.22 on MARK4 [1] (298 K) and 1.10 on MARK4 [1] (305 K). In addition, the “Kq (bimolecular quenching rate constant)” value on MARK4 [1] (288 K) is reported as 4.25 10^14M^-1 s^-1; at MARK4 [1] (298 K), 9.22 10^14M^-1 s^-1; on MARK4 [1] (305 K), 10.88 10^14M^-1 s^-1. Also, the “binding constant (K)” value was 5e+06 M⁻¹ on MARK4 [1] (288 K, double log relation); 2e+06 M⁻¹ at MARK4 [1] (298 K, double log relation); 700000 M⁻¹ on MARK4 [1] (305 K, double log relation). The “∆G” value is -8.956 kcal/mol on MARK4 [1] (288 K), -8.538 kcal/mol on MARK4 [1] (298 K) and -8.245 kcal/mol on MARK4 [1] (305 K). Moreover, the equilibrium dissociation constant (Kd) (usually the constant that tells how readily two partners part at equilibrium) was 0.1 µM at MARK4 [1] (setting [7]); 0.2 µM on MARK4 [1] (K (binding constant), 288 K, modified Stern-Volmer); 0.5 µM at MARK4 [1] (K (binding constant), 298 K, modified Stern-Volmer); 1.43 µM at MARK4 [1] (K (binding constant), 305 K, modified Stern-Volmer); 0.227 µM on MARK4 [2]. In addition, the “∆H” value on MARK4 [1] (setting [8]) was -21.003 kcal/mol. Moreover, the “∆S” value on MARK4 [1] (setting [8]) is recorded as −41.82 calmol^−1K^−1; on MARK4 [2] (ITC, 25 °C), −26.4 cal.mol^−1K^−1. In addition, the 50% inhibitory concentration (IC50) (as a rule, the concentration that gives 50% inhibition) against MARK4 [3] stood at 6.2 µM. The phosphorylation of tau result in the test on phosphorylation of tau was “decreases phosphorylation of tau”. In addition, the “cell growth / viability” value with MDA-MB-231 cells [4] and in the test on A549 cells was “significantly inhibited the growth” throughout. Moreover, the “protein expression level of MARK4” value in the test with MARK4 [5] is recorded as “decreases the expression of MARK4”. The apoptotic cells with MDA-MB-231 cells [6] (MDA-MB-231, 2 × IC50 concentration) was 15.90%; in the test on MDA-MB-231 cells [6] (MDA-MB-231, IC50 concentration), 9.0%.

In the case of `COc1cc(C=O)ccc1O` [Vanillin], at MARK4 [1] (setting [7]), the Kd is 6.21 µM.

The compound `O=c1oc2c(O)c(O)cc3c(=O)oc4c(O)c(O)cc1c4c23` [Ellagic Acid] gave a Kd on MARK4 [1] (setting [7]) of 9900 µM.

For the compound `COc1cc(/C=C/C(=O)O)ccc1O` [Ferulic Acid], on MARK4 [1] (fluorescence quenching studies, temperature not given), the “binding constant (K)” value came out at 50 M⁻¹.
